Where “and” joins values, the source holds several entries; their conditions need not be identical. Equal entries are not always repeated. Entries after “also recorded” stand apart in the source; their conditions may differ.
Tests used:
[1] = system: staurosporine-induced apoptosis; conditions: cited from earlier work
[2] = system: human lung cancer cell line H460; test: LDH assay (membrane integrity) in H460 cancer cells; assay type: cell-based
Procedure: (§1) Cancer Cell Culture. The mouse liver cancer cell line BNLT3 (gift of Dr. Jack Wands, Brown University) and the human lung cancer cell line H460 (ATCC) were seeded into 96-well plates at a density of 4,000 cells/well and cultured at 37° C., 5% CO2, in DMEM (11965, Gibco) supplemented with 10% fetal bovine serum, 20 mM HEPES, 1 mM sodium pyruvate, and […] gentamycin (all reagents came from Gibco).
Cell Insults and Treatments. Determination of concentration for each anticancer drug in our experiments was based on its reported concentration in human cerebral spinal fluid (CSF) in chemotherapy, literature report of its neurotoxicity in culture, and our preliminary in vitro experimental data. […] […] PAN-811.Cl.H2O was added to cultures to final concentrations of 1.25, 2.5, 5, and 10 μM at the same time as addition of the anticancer drugs. For cancer cell lines, the cells were insulted by the second day of cell seeding with the same concentration of MTX, 5-FU, or CDDP as used in neuronal culture in the absence or presence of 10 μM PAN-811.Cl.H2O for another 3 days.
(§2) Quantitative Assays and Morphological Assessment. Cell membrane integrity and mitochondrial function of either neurons or cancer cells were measured with LDH and 3-(4,5-dimethylthiazol-2-yl)-5-(3-carboxymethoxyphenyl)-2-(4-sulfophenyl)-2H-tetrazolium [MTS] analyses, respectively. The latter has been used to quantify cell survival. For the LDH assay, a mixture of a 35 μL aliquot of culture supernatant and 17.5 μL of Mixed Substrate, Enzyme and Dye Solutions (Sigma) was incubated at room temperature (RT) for 30 minutes. For the MTS assay, 10 μL of MTS reagent (Promega) was added to a culture well containing neurons in 50 μL of medium. The preparations were incubated at 37° C. for 2 hours. The preparations for both assays were then spectrophotometrically measured at 490 nm using a 96-well plate reader (Mode 550, Bio-Rad). Neuronal cell death was morphologically determined based on the integrity of the cell soma and continuity of neuronal processes. The change in number of cancer cells was judged directly by cell density. Cells were photographed under an inverted phase contrast microscope (IX 70, Olympus) using 10× or 20× objective.
(§3) Data Analysis. Data were generated from 4-6 replicate wells, expressed as mean±standard deviation (SD), and statistically evaluated at a significance level of 1% with one factor ANOVA or Student's t-test by using software VASSARSTATS (http://vassarstats.net/) followed by the Tukey HSD test. Figure symbols are as follows: #, P<0.05, and ##, P<0.01, compared with control; *, P<0.05, and **, P<0.01, compared with the insulted group; §§, P<0.01, compared with PAN-811 treated group by Student's t-test.

[3] = system: mouse liver cancer cell line BNLT3; test: MTS assay in BNLT3 cancer cells; assay type: cell-based
Procedure: as §1
(§4) Cell Insults and Treatments. Determination of concentration for each anticancer drug in our experiments was based on its reported concentration in human cerebral spinal fluid (CSF) in chemotherapy, literature report of its neurotoxicity in culture, and our preliminary in vitro experimental data. At 13 d.i.v., the neuronal cell cultures were insulted with 100 μM of MTX (M9929, Sigma), 25 μM of 5-FU (F6627, Sigma), or 3.5 μM of CDDP (sc-200896, Santa Cruz) for 3 days in absence or presence of PAN 811.Cl.H2O. For ROS examination, the neurons were insulted with both 100 μM of MTX and 25 μM of 5-FU by 15 d.i.v. PAN-811.Cl.H2O was added to cultures to final concentrations of 1.25, 2.5, 5, and 10 μM at the same time as addition of the anticancer drugs. For cancer cell lines, the cells were insulted by the second day of cell seeding with the same concentration of MTX, 5-FU, or CDDP as used in neuronal culture in the absence or presence of 10 μM PAN-811.Cl.H2O for another 3 days.
as §2, §3

[4] = system: human Alzheimer's disease-derived and age-matched olfactory neuroepithelial cells; conditions: via suppression of intracellular reactive oxygen species; cited from earlier work
[5] = cell-free system, EDTA as positive control; cited from earlier work
[6] = system: hypoxia-induced neuronal cell death; conditions: 1.2 μM; cited from earlier work
sodium channel = conditions: cited from earlier work
[7] = system: ischemic neurodegeneration; conditions: 0.45 μM; cited from earlier work
[8] = system: middle cerebral artery occlusion (MCAo); conditions: cited from earlier work
[9] = system: hydrogen peroxide-induced LDH release; conditions: cited from earlier work
[10] = system: mouse liver cancer cell line BNLT3; test: Cell density of BNLT3 cells (phase contrast); assay type: cell-based
Procedure: as §1, §4, §2

[11] = system: human lung cancer cell line H460; test: MTS assay in H460 cancer cells; assay type: cell-based
Procedure: as §1, §4, §2, §3

[12] = system: intracellular free calcium; conditions: 5 μM; ischemic condition (19-fold increase); cited from earlier work
cultured neuronal cells = conditions: cited from earlier work
[13] = 3.5 μM CDDP and 10 μM PAN-811, 3 days
[14] = 100 μM MTX and 10 μM PAN-811, 3 days
[15] = each agent alone, 3 days: MTX 100 μM, 5-FU 25 μM, CDDP 3.5 μM, PAN-811 10 μM
[16] = 25 μM 5-FU and 10 μM PAN-811, 3 days

NC(=S)N/N=C/c1ncccc1N [PAN-811, 3-aminopyridine-2-carboxaldehyde thiosemicarbazone]
staurosporine-induced apoptosis [1]: prevents | increase in LDH reading, cotreatment with CDDP [2, 13]: 57% | effect on MTX-, 5-FU-, or CDDP-induced membrane leakage ([2]; 10 μM PAN-811): inhibitory effect | reduction of LDH reading compared with MTX group, cotreatment [2, 14]: 70% | increase in LDH reading in culture supernatant [2, 15]: 31% and 30% | MTS reading, cotreatment vs PAN-811 alone [3, 13]: did not introduce an extra reduction in MTS reading | inhibition of the effect of MTX, 5-FU, or CDDP on BNLT3 cells ([3]; 10 μM PAN-811): did not show any inhibition | synergistic effect with each tested anticancer drug on BNLT3 cell growth ([3]; 10 μM PAN-811): neither did it demonstrate any synergistic effect | MTS reading, cotreatment vs 5-FU alone [3, 16]: caused a further reduction in MTS reading | MTS reading, cotreatment vs MTX alone [3, 14]: did not cause any further reduction in MTS reading | oxidative stress-induced cell death [4]: inhibited | chelation of free calcium [5]: as efficiently as EDTA | hypoxia-induced neuronal cell death [6]: completely halted | veratridine-induced sodium channel opening related to Ca2+ influx (sodium channel): prevents | ischemic neurodegeneration [7]: fully blocked | reduction of mortality ([8]; PAN-811 treated groups collectively): 44% | reduction in brain edema volume ([8]; i.v., 2 mg/kg): 70% | reduction of infarct volume, maximal protection ([8]; single i.v. bolus, 2 mg/kg): 50% | suppression of hydrogen peroxide-induced LDH release ([9]; 1 μM, vs untreated/H2O2-insulted group): 78% | suppression of hydrogen peroxide-induced LDH release, maximal protection ([9]; 10 μM, vs untreated and H2O2-insulted group): 90% | EC50 ([9]; read-out: EC50, protection against hydrogen peroxide-induced LDH release): ~550 nM | cell density, cotreatment with CDDP [10, 13]: significant reduction in the cell density | cell number, cotreatment with 5-FU [10, 16]: significantly decreased the cell number | cell density, cotreatment with MTX [10, 14]: cell density was also much lower than that in no-insult control | cell density / cancer cell number [10, 15]: cell density was also much lower than that in no-insult control; also recorded: significant reduction in the cell density | interaction with CDDP on suppression of H460 growth ([11]; 3.5 μM CDDP and 10 μM PAN-811): synergistic effect | reduction of MTS reading, cotreatment with CDDP [11, 13]: 85% | inhibition of the effect of MTX, 5-FU, or CDDP on cell growth of H460 cells ([11]; 10 μM PAN-811): did not show any inhibition | interaction with 5-FU on suppression of H460 growth ([11]; 25 μM 5-FU and 10 μM PAN-811): synergistic effect | reduction of MTS reading, cotreatment with 5-FU [11, 16]: 84% | MTS reading, cotreatment with MTX [11, 14]: about the same as 10 μM PAN-811 alone | reduction of MTS reading [11, 15]: 76% and 74% and 75% | reduction of elevated intracellular free calcium [12]: 72% | neuroprotection against glutamate insult (cultured neuronal cells; cells pretreated with 10 μM for 24 h): Nearly complete neuroprotection | glutamate-induced excitatory cytotoxicity (cultured neuronal cells): prevents

Source: patent US10525044B2, “Treatment for chemotherapy-induced peripheral neuropathy” (priority 2013, dated 2020)
